Measured values as given in patent US8367700B2, “Substituted 4-(1.2,3,4-tetrahydroisoquinolin-2-yl)-4-oxobutyric acid amide as KCNQ2/3 modulators” (Gruenenthal GmbH, priority 2008, dated 2013).

How the values were obtained:
[1] = system: rat; experiment: Formalin test in the rat; type: in vivo, Sprague Dawley rats; conditions: phase II (21-27 min after formalin administration)
Description: The formalin test (Dubuisson, D. and Dennis, S. G., 1977, Pain, 4, 161-174) is a model for acute and chronic pain. In the tests described here, the chronic pain component (phase II of the formalin test; time interval 21-27 min after formalin administration) was analysed.
A single formalin injection into the dorsal side of one rear paw was used to induce a biphase nociceptive response in experimental animals allowed to move freely, and the response was recorded by observation of three clearly distinguishable behaviour patterns.
Formalin is administered subcutaneously in a volume of 50 μl and a concentration of 5% into the dorsal side of the right rear paw of each animal. The vehicle and the substances to be tested are administered intravenously 5 minutes before or orally 30 minutes before the formalin injection.
The specific behavioural changes, such as lifting and shaking the paw, shifting of weight by the animal and biting and licking responses, are observed and recorded continuously for 60 minutes after formalin administration. The behavioural changes are weighted differently (score 0-3) and a pain rate (PR) calculated using the formula below: PR=[(T0×0)+(T1×1)+(T2×2)+(T3×3)/180.
Sprague Dawley rats (Janvier, Belgium) are used as the phylum. The weight of the animals is between 180 and 200 g. The group size was n=10.

[2] = target: T1, hKCNQ2/3 (Homo sapiens, UniProt O43525+O43526); experiment: Fluorescence assay using a voltage-sensitive dye (fluorimetry); type: cell-based; design: expressed in transfected cells; host or cells: CHO-K1; conditions: CHO-K1 cells expressing KCNQ2/3
Description: Pharmacological Experiments Fluorescence Assay Using a Voltage-Sensitive Dye
Human CHO-K1 cells expressing KCNQ2/3 channels are cultivated adherently at 37° C., 5% CO2 and 95% humidity in cell culture bottles (e.g. 80 cm^2 TC flasks, Nunc) with DMEM-high glucose (Sigma Aldrich, D7777) including 10% FCS (PAN Biotech, e.g. 3302-P270521) or alternatively MEM Alpha Medium (1×, liquid, Invitrogen, #22571), 10% foetal calf serum (FCS) (Invitrogen, #10270-106, heat-inactivated) and the necessary selection antibiotics.
Before being sown out for the measurements, the cells are washed with a 1×DPBS buffer without Ca^2+/Mg^2+ (e.g. Invitrogen, #14190-094) and detached from the bottom of the culture vessel by means of Accutase (PAA Laboratories, #L11-007) (incubation with Accutase for 15 min at 37° C.). The cell count then present is determined using a CASY™ cell counter (TCC model, Scharfe System) in order subsequently to apply 20,000 to 30,000 cells/well/100 μl of the described nutrient medium, depending on density optimisation for the individual cell line, to 96-well measuring plates of the Corning™ CeIIBIND™ type (flat clear-bottom black polystyrene microplates, #3340).
Incubation is then carried out for one hour at room temperature, without gassing or adjusting the humidity, followed by incubation for 24 hours at 37° C., 5% CO2 and 95% humidity.
The voltage-sensitive fluorescent dye from the Membrane Potential Assay Kit (Red™ bulk format part R8123 for FLIPR, MDS Analytical Technologies™) is prepared by dissolving the contents of a vessel of Membrane Potential Assay Kit Red Component A in 200 ml of extracellular buffer (ES buffer, 120 mM NaCl, 1 mM KCl, 10 mM HEPES, 2 mM CaCl2, 2 mM MgCl2, 10 mM glucose; pH 7.4). After removal of the nutrient medium, the cells are washed with 200 μl of ES buffer, then covered with a layer of 100 μl of the dye solution prepared above and incubated for 45 min at room temperature with exclusion of light.
The fluorescence measurements are carried out with a BMG Labtech FLUOstar™ BMG Labtech NOVOstar™ or BMG Labtech POLARstar™ instrument (525 nm excitation, 560 nm emission, bottom-read mode). After incubation of the dye, 50 μl of the substances to be tested in the desired concentrations, or 50 μl of ES buffer for control purposes, are introduced into separate cavities of the measuring plate and incubated for 30 min at room temperature whilst being shielded from light. The fluorescence intensity of the dye is then measured for 5 min and the fluorescence value F1 of each well is thus determined at a given, constant time. 15 μl of a […] KCl solution ([…]) are then added to each well. The change in fluorescence is subsequently measured until all relevant measured values have been obtained (mainly 5-30 min). At a given time after KCl application, a fluorescence value F2 is determined, in this case at the time of the fluorescence peak.
For calculation, the fluorescence intensity F2 is compared with the fluorescence intensity F1, and the agonistic activity of the target compound on the potassium channel is determined therefrom. F2 and F1 are calculated as follows: […]
In order to determine whether a substance has an agonistic activity,
[formula] for example, can be compared with
[formula] of control cells.
[formula] is determined by adding to the reaction batch only the buffer solution instead of the substance to be tested, determining the value F1K of the fluorescence intensity, adding the potassium ions as described above and measuring a value F2K of the fluorescence intensity. Then F2K and F1K are calculated as follows: […]
A substance has an agonistic activity on the potassium channel if
[formula] is greater than
Independently of the comparison of
[formula] it is also possible to conclude that a target compound has an agonistic activity if an increase in
[formula] is to be observed as the dosage of the target compound increases. […]

[3] = target: T1, hKCNQ2/3; experiment: Voltage-clamp (patch-clamp) measurements on stably transfected hKCNQ2/3 CHO-K1 cell line; type: cell-based; design: expressed in transfected cells; host or cells: CHO-K1 (stably transfected); conditions: 10 μM test substance at −40 mV, current increase normalised against retigabine (10 μM), read-out: Patch-clamp % Efficacy @ 10 μM (Retigabine = 100%)
Description: Voltage-Clamp Measurements
In order to confirm a KCNQ2/3 agonistic action of the substances electrophysiologically, patch-clamp measurements (Hamill O P, Marty A, Neher E, Sakmann B, Sigworth F J: Improved patch-clamp techniques for high-resolution current recording from cells and cell-free membrane patches, Pfluger's Arch. 1981 August; 391(2):85-100) were performed in voltage-clamp mode on a stably transfected hKCNQ2/3 CHO-K1 cell line. After formation of the gigaseal the cells were first clamped at a holding potential of −60 mV. Depolarising voltage jumps up to a potential of +20 mV were then applied (increment: 20 mV, duration: 1 second) in order to confirm the functional expression of KCNQ2/3-typical currents. The substances were tested at a potential of −40 mV. First of all the current increase induced by retigabine (10 μM) at −40 mV was recorded on each cell as a positive control. After completely washing out the retigabine effect (duration: 80 s) the test substance (10 μM) was applied. The current increase induced by the test substance was normalised against the retigabine effect and stated as the relative efficacy (see below).

T1 sequence (O43526 whole entry): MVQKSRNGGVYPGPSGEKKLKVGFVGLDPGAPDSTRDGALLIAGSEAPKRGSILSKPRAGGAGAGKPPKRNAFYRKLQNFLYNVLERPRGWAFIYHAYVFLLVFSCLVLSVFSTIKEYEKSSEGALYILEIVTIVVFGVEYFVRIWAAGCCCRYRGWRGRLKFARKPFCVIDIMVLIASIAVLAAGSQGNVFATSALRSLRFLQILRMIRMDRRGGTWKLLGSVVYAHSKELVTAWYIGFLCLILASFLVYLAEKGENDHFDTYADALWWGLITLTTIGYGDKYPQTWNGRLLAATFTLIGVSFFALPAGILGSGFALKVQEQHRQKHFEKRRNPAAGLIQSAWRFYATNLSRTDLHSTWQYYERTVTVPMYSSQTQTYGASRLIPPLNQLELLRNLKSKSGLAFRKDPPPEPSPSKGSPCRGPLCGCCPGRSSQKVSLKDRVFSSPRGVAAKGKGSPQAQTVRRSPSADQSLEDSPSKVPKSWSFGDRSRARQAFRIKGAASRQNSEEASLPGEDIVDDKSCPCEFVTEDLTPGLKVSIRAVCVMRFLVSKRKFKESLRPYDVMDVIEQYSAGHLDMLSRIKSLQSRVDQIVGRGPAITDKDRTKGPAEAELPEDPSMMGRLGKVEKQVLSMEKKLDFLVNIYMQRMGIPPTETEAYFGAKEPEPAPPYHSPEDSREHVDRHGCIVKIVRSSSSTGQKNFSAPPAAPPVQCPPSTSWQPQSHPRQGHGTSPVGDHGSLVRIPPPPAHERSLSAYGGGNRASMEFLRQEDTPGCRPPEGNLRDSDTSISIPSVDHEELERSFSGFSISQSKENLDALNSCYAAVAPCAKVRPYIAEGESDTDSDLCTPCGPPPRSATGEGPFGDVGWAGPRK
T1 sequence (O43525 whole entry): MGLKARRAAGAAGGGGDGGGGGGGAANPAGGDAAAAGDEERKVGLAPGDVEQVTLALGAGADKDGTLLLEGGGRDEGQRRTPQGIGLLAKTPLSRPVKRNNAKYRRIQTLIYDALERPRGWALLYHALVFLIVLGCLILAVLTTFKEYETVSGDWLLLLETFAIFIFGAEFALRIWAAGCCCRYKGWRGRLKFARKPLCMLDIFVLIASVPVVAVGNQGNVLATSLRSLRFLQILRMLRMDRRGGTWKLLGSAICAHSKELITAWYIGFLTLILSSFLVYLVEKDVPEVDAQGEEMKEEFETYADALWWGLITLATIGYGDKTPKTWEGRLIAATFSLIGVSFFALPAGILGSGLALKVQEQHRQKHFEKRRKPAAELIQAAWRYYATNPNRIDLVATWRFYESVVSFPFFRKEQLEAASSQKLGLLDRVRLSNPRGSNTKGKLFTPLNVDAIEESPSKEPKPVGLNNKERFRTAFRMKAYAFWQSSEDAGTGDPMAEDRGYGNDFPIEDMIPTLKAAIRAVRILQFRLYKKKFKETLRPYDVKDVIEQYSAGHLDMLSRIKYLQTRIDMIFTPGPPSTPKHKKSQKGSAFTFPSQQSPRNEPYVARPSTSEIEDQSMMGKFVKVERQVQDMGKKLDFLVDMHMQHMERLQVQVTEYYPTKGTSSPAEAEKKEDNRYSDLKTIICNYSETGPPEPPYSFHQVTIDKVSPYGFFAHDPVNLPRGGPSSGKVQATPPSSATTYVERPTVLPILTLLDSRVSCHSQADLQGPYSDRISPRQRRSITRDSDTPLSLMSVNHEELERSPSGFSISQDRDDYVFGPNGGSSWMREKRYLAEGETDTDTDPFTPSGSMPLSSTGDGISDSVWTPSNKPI

With `O=C(CCC(=O)N1CCc2ccccc2C1c1ccccc1)NCc1cccc(C(F)(F)F)c1` (stereo not shown) [Example compound 1, 4-Oxo-4-(1-phenyl-3,4-dihydroisoquinolin-2(1H)-yl)-N-(3-(trifluoromethyl)benzyl)butyric acid amide] the “Formalin test rat i.v. @ 4.64 mg/kg % Reduction of nociceptive behaviour” value [1] was 40%, the Emax at 10 µM ([2]; 10 μM, relative to retigabine = 100%, read-out: Fluorimetry % Efficacy @ 10 μM (Retigabine = 100%)) was 110% and the EC50 [2] was 1900 nM. The Emax at 10 µM [3] was 78%.
